Data: PubChem BioAssay (NCI)
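Briefly, cells in 96-well plates were exposed to five compound concentrations for 48 h, and endpoints were estimated by linear interpolation. At the GI50, growth is halved. The concentration for full growth arrest is given as TGI.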

Tests used:
Test in all cases: growth of human tumour cells (NCI), 48 h
786-0 renal = tested on: 786-0 renal
A498 renal = tested on: A498 renal
A549 NSCLC = tested on: A549 NSCLC
ACHN renal = tested on: ACHN renal
BT-549 breast = tested on: BT-549 breast
CAKI-1 renal = tested on: CAKI-1 renal
CCRF-CEM leukemia = tested on: CCRF-CEM leukemia
COLO 205 colon = tested on: COLO 205 colon
DU-145 prostate = tested on: DU-145 prostate
EKVX NSCLC = tested on: EKVX NSCLC
HCC-2998 colon = tested on: HCC-2998 colon
HCT-116 colon = tested on: HCT-116 colon
HCT-15 colon = tested on: HCT-15 colon
HL-60(TB) leukemia = tested on: HL-60(TB) leukemia
HOP-62 NSCLC = tested on: HOP-62 NSCLC
HOP-92 NSCLC = tested on: HOP-92 NSCLC
HS 578T breast = tested on: HS 578T breast
HT29 colon = tested on: HT29 colon
IGROV1 ovarian = tested on: IGROV1 ovarian
K-562 leukemia = tested on: K-562 leukemia
KM12 colon = tested on: KM12 colon
LOX IMVI melanoma = tested on: LOX IMVI melanoma
M14 melanoma = tested on: M14 melanoma
MALME-3M melanoma = tested on: MALME-3M melanoma
MCF7 breast = tested on: MCF7 breast
MDA-MB-231 breast = tested on: MDA-MB-231 breast
MDA-MB-435 = tested on: MDA-MB-435
MOLT-4 leukemia = tested on: MOLT-4 leukemia
NCI-H226 lung = tested on: NCI-H226 lung
NCI-H23 lung = tested on: NCI-H23 lung
NCI-H460 lung = tested on: NCI-H460 lung
NCI-H522 lung = tested on: NCI-H522 lung
NCI/ADR-RES ovarian = tested on: NCI/ADR-RES ovarian
OVCAR-3 ovarian = tested on: OVCAR-3 ovarian
OVCAR-4 ovarian = tested on: OVCAR-4 ovarian
OVCAR-5 ovarian = tested on: OVCAR-5 ovarian
OVCAR-8 ovarian = tested on: OVCAR-8 ovarian
PC-3 prostate = tested on: PC-3 prostate
RPMI-8226 leukemia = tested on: RPMI-8226 leukemia
RXF 393 renal = tested on: RXF 393 renal
SF-268 CNS = tested on: SF-268 CNS
SF-295 CNS = tested on: SF-295 CNS
SF-539 CNS = tested on: SF-539 CNS
SK-MEL-2 melanoma = tested on: SK-MEL-2 melanoma
SK-MEL-28 melanoma = tested on: SK-MEL-28 melanoma
SK-MEL-5 melanoma = tested on: SK-MEL-5 melanoma
SK-OV-3 ovarian = tested on: SK-OV-3 ovarian
SN12C renal = tested on: SN12C renal
SNB-19 CNS = tested on: SNB-19 CNS
SNB-75 CNS = tested on: SNB-75 CNS
SR leukemia = tested on: SR leukemia
SW-620 colon = tested on: SW-620 colon
T-47D breast = tested on: T-47D breast
TK-10 renal = tested on: TK-10 renal
U251 CNS = tested on: U251 CNS
UACC-257 melanoma = tested on: UACC-257 melanoma
UACC-62 melanoma = tested on: UACC-62 melanoma
UO-31 renal = tested on: UO-31 renal

COc1cccc(/C=N/Nc2ncnc3c2cnn3-c2cccc(OC)c2)c1
GI50 (786-0 renal): > 25 µM
TGI (786-0 renal): > 25 µM
GI50 (A498 renal): > 25 µM
TGI (A498 renal): > 25 µM
GI50 (A549 NSCLC): > 25 µM
TGI (A549 NSCLC): > 25 µM
GI50 (ACHN renal): > 25 µM
TGI (ACHN renal): > 25 µM
GI50 (BT-549 breast): > 25 µM
TGI (BT-549 breast): > 25 µM
GI50 (CAKI-1 renal): > 25 µM
TGI (CAKI-1 renal): > 25 µM
GI50 (CCRF-CEM leukemia): > 25 µM
TGI (CCRF-CEM leukemia): > 25 µM
GI50 (COLO 205 colon): > 25 µM
TGI (COLO 205 colon): > 25 µM
GI50 (DU-145 prostate): > 25 µM
TGI (DU-145 prostate): > 25 µM
GI50 (EKVX NSCLC): > 25 µM
TGI (EKVX NSCLC): > 25 µM
GI50 (HCC-2998 colon): > 25 µM
TGI (HCC-2998 colon): > 25 µM
GI50 (HCT-116 colon): > 25 µM
TGI (HCT-116 colon): > 25 µM
GI50 (HCT-15 colon): > 25 µM
TGI (HCT-15 colon): > 25 µM
GI50 (HL-60(TB) leukemia): > 25 µM
TGI (HL-60(TB) leukemia): > 25 µM
GI50 (HOP-62 NSCLC): > 25 µM
TGI (HOP-62 NSCLC): > 25 µM
GI50 (HOP-92 NSCLC): > 25 µM
TGI (HOP-92 NSCLC): > 25 µM
GI50 (HS 578T breast): > 10.6 µM
TGI (HS 578T breast): > 25 µM
GI50 (HT29 colon): > 25 µM
TGI (HT29 colon): > 25 µM
GI50 (IGROV1 ovarian): > 25 µM
TGI (IGROV1 ovarian): > 25 µM
GI50 (K-562 leukemia): > 25 µM
TGI (K-562 leukemia): > 25 µM
GI50 (KM12 colon): > 25 µM
TGI (KM12 colon): > 25 µM
GI50 (LOX IMVI melanoma): > 25 µM
TGI (LOX IMVI melanoma): > 25 µM
GI50 (M14 melanoma): > 25 µM
TGI (M14 melanoma): > 25 µM
GI50 (MALME-3M melanoma): > 25 µM
TGI (MALME-3M melanoma): > 25 µM
GI50 (MCF7 breast): > 25 µM
TGI (MCF7 breast): > 25 µM
GI50 (MDA-MB-231 breast): > 25 µM
TGI (MDA-MB-231 breast): > 25 µM
GI50 (MDA-MB-435): > 25 µM
TGI (MDA-MB-435): > 25 µM
GI50 (MOLT-4 leukemia): > 25 µM
TGI (MOLT-4 leukemia): > 25 µM
GI50 (NCI-H226 lung): > 25 µM
TGI (NCI-H226 lung): > 25 µM
GI50 (NCI-H23 lung): > 25 µM
TGI (NCI-H23 lung): > 25 µM
GI50 (NCI-H460 lung): > 25 µM
TGI (NCI-H460 lung): > 25 µM
GI50 (NCI-H522 lung): > 25 µM
TGI (NCI-H522 lung): > 25 µM
GI50 (NCI/ADR-RES ovarian): > 25 µM
TGI (NCI/ADR-RES ovarian): > 25 µM
GI50 (OVCAR-3 ovarian): > 25 µM
TGI (OVCAR-3 ovarian): > 25 µM
GI50 (OVCAR-4 ovarian): > 25 µM
TGI (OVCAR-4 ovarian): > 25 µM
GI50 (OVCAR-5 ovarian): > 25 µM
TGI (OVCAR-5 ovarian): > 25 µM
GI50 (OVCAR-8 ovarian): > 25 µM
TGI (OVCAR-8 ovarian): > 25 µM
GI50 (PC-3 prostate): > 25 µM
TGI (PC-3 prostate): > 25 µM
GI50 (RPMI-8226 leukemia): > 25 µM
TGI (RPMI-8226 leukemia): > 25 µM
GI50 (RXF 393 renal): > 25 µM
TGI (RXF 393 renal): > 25 µM
GI50 (SF-268 CNS): > 25 µM
TGI (SF-268 CNS): > 25 µM
GI50 (SF-295 CNS): > 25 µM
TGI (SF-295 CNS): > 25 µM
GI50 (SF-539 CNS): > 25 µM
TGI (SF-539 CNS): > 25 µM
GI50 (SK-MEL-2 melanoma): > 25 µM
TGI (SK-MEL-2 melanoma): > 25 µM
GI50 (SK-MEL-28 melanoma): > 25 µM
TGI (SK-MEL-28 melanoma): > 25 µM
GI50 (SK-MEL-5 melanoma): > 25 µM
TGI (SK-MEL-5 melanoma): > 25 µM
GI50 (SK-OV-3 ovarian): > 25 µM
TGI (SK-OV-3 ovarian): > 25 µM
GI50 (SN12C renal): > 25 µM
TGI (SN12C renal): > 25 µM
GI50 (SNB-19 CNS): > 25 µM
TGI (SNB-19 CNS): > 25 µM
GI50 (SNB-75 CNS): > 25 µM
TGI (SNB-75 CNS): > 25 µM
GI50 (SR leukemia): > 25 µM
TGI (SR leukemia): > 25 µM
GI50 (SW-620 colon): > 25 µM
TGI (SW-620 colon): > 25 µM
GI50 (T-47D breast): > 25 µM
TGI (T-47D breast): > 25 µM
GI50 (TK-10 renal): > 25 µM
TGI (TK-10 renal): > 25 µM
GI50 (U251 CNS): > 25 µM
TGI (U251 CNS): > 25 µM
GI50 (UACC-257 melanoma): > 25 µM
TGI (UACC-257 melanoma): > 25 µM
GI50 (UACC-62 melanoma): > 25 µM
TGI (UACC-62 melanoma): > 25 µM
GI50 (UO-31 renal): > 25 µM
TGI (UO-31 renal): > 25 µM
